Experimental data as given in ChEMBL document CHEMBL4052768, “Discovery of novel 2-(3-phenylpiperazin-1-yl)-pyrimidin-4-ones as glycogen synthase kinase-3β inhibitors” (Bioorg Med Chem Lett, 2017).

Legend:
[1] = biological target: Glycogen synthase kinase-3 beta (Homo sapiens, UniProt P49841); experiment: Inhibition of recombinant human GSK-3beta using prephosphorylated GS-1 peptide as substrate after 1 hr in presence of [gamma-32P]ATP by liquid scintillation spectrometric method
Cytochrome P450 2D6 [2] = biological target: T1, Cytochrome P450 2D6 (Homo sapiens, UniProt P10635); experiment: Inhibition of recombinant human CYP2D6; type: ADME
Cytochrome P450 1A2 [3] = biological target: T2, Cytochrome P450 1A2 (Homo sapiens, UniProt P05177); experiment: Inhibition of CYP1A2 in human liver microsomes; type: ADME
T2 sequence (P05177 whole entry): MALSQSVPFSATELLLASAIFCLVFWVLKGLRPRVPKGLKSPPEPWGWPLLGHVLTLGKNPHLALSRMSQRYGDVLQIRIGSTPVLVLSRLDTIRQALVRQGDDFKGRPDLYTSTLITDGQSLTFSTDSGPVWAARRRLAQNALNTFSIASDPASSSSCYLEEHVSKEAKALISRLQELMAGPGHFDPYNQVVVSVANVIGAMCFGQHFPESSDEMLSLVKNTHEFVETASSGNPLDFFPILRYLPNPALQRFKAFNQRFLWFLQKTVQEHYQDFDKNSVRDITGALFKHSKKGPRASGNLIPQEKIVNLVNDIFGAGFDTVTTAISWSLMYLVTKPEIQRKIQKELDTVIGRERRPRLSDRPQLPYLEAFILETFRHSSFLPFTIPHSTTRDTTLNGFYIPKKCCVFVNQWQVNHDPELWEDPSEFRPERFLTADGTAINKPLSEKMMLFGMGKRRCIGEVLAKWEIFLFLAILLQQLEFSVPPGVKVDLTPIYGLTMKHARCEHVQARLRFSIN

Cytochrome P450 3A4 [4] = biological target: T3, Cytochrome P450 3A4 (Homo sapiens, UniProt P08684); experiment: Inhibition of recombinant human CYP3A4; type: ADME
Cytochrome P450 1A2 [5] = biological target: T2, Cytochrome P450 1A2; experiment: Inhibition of recombinant human CYP1A2; type: ADME
Cytochrome P450 3A4 [6] = biological target: T3, Cytochrome P450 3A4; experiment: Inhibition of CYP3A4 in human liver microsomes; type: ADME
Cytochrome P450 2D6 [7] = biological target: T1, Cytochrome P450 2D6; experiment: Inhibition of CYP2D6 in human liver microsomes; type: ADME

T3 sequence (P08684 whole entry): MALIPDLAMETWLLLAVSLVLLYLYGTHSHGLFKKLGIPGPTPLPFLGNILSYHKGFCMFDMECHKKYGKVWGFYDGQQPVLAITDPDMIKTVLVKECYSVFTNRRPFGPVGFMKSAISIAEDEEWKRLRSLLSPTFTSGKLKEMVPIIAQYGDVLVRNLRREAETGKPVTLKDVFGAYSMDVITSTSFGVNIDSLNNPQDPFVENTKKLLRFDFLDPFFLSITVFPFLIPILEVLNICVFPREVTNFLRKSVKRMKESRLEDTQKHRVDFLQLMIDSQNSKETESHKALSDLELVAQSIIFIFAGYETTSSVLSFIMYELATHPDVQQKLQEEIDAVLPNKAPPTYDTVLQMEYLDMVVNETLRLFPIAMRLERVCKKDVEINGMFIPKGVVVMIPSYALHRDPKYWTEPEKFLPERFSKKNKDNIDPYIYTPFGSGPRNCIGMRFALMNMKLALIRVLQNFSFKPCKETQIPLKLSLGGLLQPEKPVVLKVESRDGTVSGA
Glycogen synthase kinase-3 beta, sequence (P49841 whole entry): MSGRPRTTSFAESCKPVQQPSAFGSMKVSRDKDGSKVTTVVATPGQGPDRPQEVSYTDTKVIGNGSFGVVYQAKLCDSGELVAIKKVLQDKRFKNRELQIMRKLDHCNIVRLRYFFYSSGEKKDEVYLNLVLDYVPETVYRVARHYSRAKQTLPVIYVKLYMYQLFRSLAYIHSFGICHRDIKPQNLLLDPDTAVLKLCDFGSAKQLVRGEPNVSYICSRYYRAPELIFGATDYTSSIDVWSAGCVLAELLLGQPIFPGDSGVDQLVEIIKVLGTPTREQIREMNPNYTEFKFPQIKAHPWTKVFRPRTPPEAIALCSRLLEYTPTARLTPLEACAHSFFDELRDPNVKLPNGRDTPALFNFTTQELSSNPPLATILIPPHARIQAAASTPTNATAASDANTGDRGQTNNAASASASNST
T1 sequence (P10635 whole entry): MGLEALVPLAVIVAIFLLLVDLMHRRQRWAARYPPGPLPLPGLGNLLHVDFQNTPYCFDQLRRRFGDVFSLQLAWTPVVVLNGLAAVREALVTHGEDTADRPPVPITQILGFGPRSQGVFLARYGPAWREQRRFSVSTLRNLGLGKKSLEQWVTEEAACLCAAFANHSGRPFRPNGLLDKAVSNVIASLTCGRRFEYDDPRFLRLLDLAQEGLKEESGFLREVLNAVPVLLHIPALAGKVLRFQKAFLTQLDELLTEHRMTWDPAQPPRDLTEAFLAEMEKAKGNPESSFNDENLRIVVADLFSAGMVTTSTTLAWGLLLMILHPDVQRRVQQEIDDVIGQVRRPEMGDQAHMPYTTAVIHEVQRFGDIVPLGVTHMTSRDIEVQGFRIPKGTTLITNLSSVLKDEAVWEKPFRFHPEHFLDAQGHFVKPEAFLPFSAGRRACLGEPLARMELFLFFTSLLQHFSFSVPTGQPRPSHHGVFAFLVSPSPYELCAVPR

| Compound | IC50 [1] [nM] | further results |
| --- | --- | --- |
| Cn1c(N2CCNC(c3ccc(F)cc3)C2)nc(-c2ccncn2)cc1=O (racemic) | 8.6 |  |
| Cn1c(N2CCNC(c3ccc(C#N)cc3)C2)nc(-c2ccncc2)cc1=O (racemic) | 15 |  |
| COc1cc(F)cc(F)c1C1CN(c2nc(-c3ccncn3)cc(=O)n2C)CCN1 (stereo unspecified) | 1.7 |  |
| COc1ccccc1C1CN(c2nc(-c3ccncn3)cc(=O)n2C)CCN1 (stereo unspecified) | 1.8 |  |
| Cn1c(N2CCNC(c3ccccc3Cl)C2)nc(-c2ccncn2)cc1=O (racemic) | 2.6 |  |
| Cn1c(N2CCNC(c3ccccc3)C2)nc(-c2ccncc2)cc1=O (racemic) | 18 |  |
| Cn1c(N2CCNC(c3ccccc3Br)C2)nc(-c2ccncn2)cc1=O (racemic) | 4.3 |  |
| Cn1c(N2CCNC(c3ccc(Cl)cc3)C2)nc(-c2ccncc2)cc1=O (racemic) | 6.6 |  |
| Cn1c(N2CCNC(c3cccc(Br)c3)C2)nc(-c2ccncn2)cc1=O (racemic) | 2 |  |
| COc1cc(F)ccc1C1CN(c2nc(-c3ccncc3)cc(=O)n2C)CCN1C(C)=O (stereo unspecified) | 1700 |  |
| COc1cc(F)ccc1C1CN(c2nc(-c3ccncn3)cc(=O)n2C)CCN1 (racemic) | 0.72 | IC50 (Cytochrome P450 2D6 [2]): 2700 nM; IC50 (Cytochrome P450 1A2 [3]): > 53 µM |
| COc1ccc(C2CN(c3nc(-c4ccncn4)cc(=O)n3C)CCN2)cc1 (racemic) | 3.5 |  |
| Cc1cc(F)ccc1C1CN(c2nc(-c3ccncc3)cc(=O)n2C)CCN1 (stereo unspecified) | 24 |  |
| Cn1c(N2CCNC(c3ccc(Cl)c(Cl)c3)C2)nc(-c2ccncn2)cc1=O (stereo unspecified) | 2.3 |  |
| COc1cc(F)ccc1C1CN(c2nc(-c3ccncc3)cc(=O)n2C)CCN1C (stereo unspecified) | 56 |  |
| COc1cc(F)ccc1C1CN(c2nc(-c3ccncc3)cc(=O)n2C)CCN1 (racemic) | 0.9 | IC50 (Cytochrome P450 2D6 [2]): 1800 nM; IC50 (Cytochrome P450 3A4 [4]): > 53 µM; IC50 (Cytochrome P450 1A2 [3]): > 53 µM |
| Cn1c(N2CCNC(c3cccc(F)c3)C2)nc(-c2ccncc2)cc1=O (racemic) | 22 |  |
| Cn1c(N2CCN[C@H](c3ccc(Cl)cc3)C2)nc(-c2ccncn2)cc1=O | 26 |  |
| COc1cccc(C2CN(c3nc(-c4ccncc4)cc(=O)n3C)CCN2)c1 (racemic) | 11 | IC50 (Cytochrome P450 1A2 [5]): > 50 µM; IC50 (Cytochrome P450 2D6 [2]): 400 nM; IC50 (Cytochrome P450 3A4 [4]): > 50 µM |
| Cn1c(N2CCNC(c3ccccc3F)C2)nc(-c2ccncc2)cc1=O (stereo unspecified) | 11 |  |
| Cn1c(N2CCNC(c3cccc(Cl)c3)C2)nc(-c2ccncc2)cc1=O (racemic) | 5.4 |  |
| Cn1c(N2CCNC(c3cccc(F)c3)C2)nc(-c2ccncn2)cc1=O (racemic) | 12 |  |
| COc1cc(F)ccc1C1CN(c2nc(-c3ccncn3)cc(=O)n2C)CCN1 (single isomer, unassigned; Enantiomer-1) | 44 | IC50 (Cytochrome P450 2D6 [2]): 3400 nM; IC50 (Cytochrome P450 3A4 [4]): > 50 µM; IC50 (Cytochrome P450 1A2 [3]): > 53 µM |
| Cn1c(N2CCNC(c3ccc(C#N)cc3)C2)nc(-c2ccncn2)cc1=O (racemic) | 7.4 |  |
| Cn1c(N2CCN[C@H](c3ccc(Cl)cc3)C2)nc(-c2ccncc2)cc1=O | 110 |  |
| Cn1c(N2CCNC(c3ccccc3Br)C2)nc(-c2ccncc2)cc1=O (racemic) | 13 |  |

| Compound | IC50 [1] [nM] | further results |
| --- | --- | --- |
| CCOc1ccccc1C1CN(c2nc(-c3ccncn3)cc(=O)n2C)CCN1 (stereo unspecified) | 20 |  |
| CCOc1ccccc1C1CN(c2nc(-c3ccncc3)cc(=O)n2C)CCN1 (stereo unspecified) | 25 |  |
| COc1cc(F)ccc1C1CN(c2nc(-c3ccncc3)cc(=O)n2C)CCN1 (single isomer, unassigned; enantiomer 1) | 54 | IC50 (Cytochrome P450 2D6 [2]): 1000 nM; IC50 (Cytochrome P450 3A4 [4]): > 50 µM; IC50 (Cytochrome P450 1A2 [3]): > 53 µM |
| Cn1c(N2CCNC(c3ccc(F)cc3)C2)nc(-c2ccncc2)cc1=O (racemic) | 18 |  |
| Cn1c(N2CCNC(c3ccc(Br)cc3)C2)nc(-c2ccncc2)cc1=O (racemic) | 22 |  |
| COc1cc(F)ccc1C1CN(c2nc(-c3ccncn3)cc(=O)n2C)CCN1Cc1ccccc1 (stereo unspecified) | 220 |  |
| Cn1c(N2CCNC(c3ccccc3Cl)C2)nc(-c2ccncc2)cc1=O (racemic) | 9.6 |  |
| Cn1c(N2CCN[C@@H](c3ccc(Cl)cc3)C2)nc(-c2ccncn2)cc1=O | 1.2 |  |
| COc1cc(F)ccc1C1CN(c2nc(-c3ccncc3)cc(=O)n2C)CCN1Cc1ccccc1 (stereo unspecified) | 1200 |  |
| COc1cc(F)ccc1C1CN(c2nc(-c3ccncc3)cc(=O)n2C)CCN1 (single isomer, unassigned; enantiomer 2) | 0.4 | IC50 (Cytochrome P450 2D6 [2]): 6000 nM; IC50 (Cytochrome P450 3A4 [4]): > 50 µM; IC50 (Cytochrome P450 1A2 [3]): > 53 µM |
| COc1cc(F)ccc1C1CN(c2nc(-c3ccncn3)cc(=O)n2C)CCN1C(C)=O (stereo unspecified) | 1500 |  |
| COc1ccc(C2CN(c3nc(-c4ccncc4)cc(=O)n3C)CCN2)cc1OC (stereo unspecified) | 5.2 |  |
| COc1cccc(C2CN(c3nc(-c4ccncn4)cc(=O)n3C)CCN2)c1 (racemic) | 6.7 |  |
| COc1ccc(C2CN(c3nc(-c4ccncc4)cc(=O)n3C)CCN2)cc1 (racemic) | 4.7 | IC50 (Cytochrome P450 3A4 [6]): > 53 µM; IC50 (Cytochrome P450 1A2 [3]): > 53 µM; IC50 (Cytochrome P450 2D6 [7]): 45 µM |
| COc1ccc(C2CN(c3nc(-c4ccncn4)cc(=O)n3C)CCN2)cc1OC (stereo unspecified) | 7.8 |  |
| Cn1c(N2CCNC(c3ccccc3F)C2)nc(-c2ccncn2)cc1=O (stereo unspecified) | 8.2 |  |
| Cn1c(N2CCNC(c3ccc(Cl)c(Cl)c3)C2)nc(-c2ccncc2)cc1=O (stereo unspecified) | 4.3 |  |
| COc1cc(F)ccc1C1CN(c2nc(-c3ccncn3)cc(=O)n2C)CCN1C (stereo unspecified) | 26 |  |
| Cn1c(N2CCNC(c3cccc(Cl)c3)C2)nc(-c2ccncn2)cc1=O (racemic) | 1.1 |  |
| COc1ccccc1C1CN(c2nc(-c3ccncc3)cc(=O)n2C)CCN1 (racemic) | 1.8 | IC50 (Cytochrome P450 1A2 [5]): > 50 µM; IC50 (Cytochrome P450 2D6 [2]): < 200 nM; IC50 (Cytochrome P450 3A4 [4]): > 50 µM |
| Cn1c(N2CCNC(c3ccc(Cl)cc3)C2)nc(-c2ccncn2)cc1=O (racemic) | 1.7 |  |
| Cn1c(N2CCN[C@@H](c3ccc(Cl)cc3)C2)nc(-c2ccncc2)cc1=O | 11 |  |
| COc1cc(F)cc(F)c1C1CN(c2nc(-c3ccncc3)cc(=O)n2C)CCN1 (stereo unspecified) | 2 |  |
| COc1cc(F)ccc1C1CN(c2nc(-c3ccncn3)cc(=O)n2C)CCN1 (single isomer, unassigned; enantiomer 2) | 0.25 | IC50 (Cytochrome P450 2D6 [2]): 9100 nM; IC50 (Cytochrome P450 1A2 [3]): > 53 µM |
| Cn1c(N2CCNC(c3ccc(Br)cc3)C2)nc(-c2ccncn2)cc1=O (racemic) | 8.1 |  |
